Experimental data taken from US20110319431A1, “Bis Aromatic Compounds for Use as LTC4 Synthase Inhibitors” (BIOLIPOX AB, priority 2009, published 2011).
pIC50: −log10 of the molar value.

Target: T1, Recombinant human LTC4 synthase (Homo sapiens, UniProt Q16873)
T1 construct: made in house; host or cells: Pichia pastoris
T1 sequence (Q16873 1-150): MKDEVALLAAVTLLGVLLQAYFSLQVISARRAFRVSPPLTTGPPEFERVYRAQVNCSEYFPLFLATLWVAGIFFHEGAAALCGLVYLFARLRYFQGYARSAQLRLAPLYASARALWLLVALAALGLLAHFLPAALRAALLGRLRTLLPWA
Assay: In vitro LTC4 synthase assay (LTA4 to LTC4, HTRF detection)
Assay type: biochemical
Details: for inhibition at 10 µM: 5 min, total concentration of title compounds in the assay 10 μM
Protocol: In the assay, LTC4 synthase catalyses the reaction where the substrate LTA4 is converted to LTC4. Recombinant human LTC4 synthase is expressed in Piccia pastoralis and the purified enzyme is dissolved in 25 mM tris-buffer pH 7.8 supplemented with 0.1 mM glutathione (GSH) and stored at −80° C. The assay is performed in phosphate buffered saline (PBS) pH 7.4 and 5 mM GSH in 384-well plates.
The following is added chronologically to each well:
1. 48 μL LTC4 synthase in PBS with 5 mM GSH. The total protein concentration in this solution is 0.5 μg/mL. 2. 1 μL inhibitor in DMSO (final concentration 10 μM). 3. Incubation of the plate at room temperature for 10 min. 4. 1 μL LTA4 (final concentration 2.5 μM). 5. Incubation of the plate at room temperature for 5 min. 6. 10 μL of the incubation mixture is analysed using homogenous time resolved fluorescent (HTRF) detection.

[1] = title compounds of the Examples

## CCCCCCS(=O)(=O)c1ccc(C(=O)c2ccc(N(C)c3ccc(Cl)cc3)cc2)cc1C(=O)O [Example 3:1, 5-{4-[(4-Chlorophenyl)(methyl)amino]benzoyl}-2-(1-hexylsulfonyl)benzoic acid]
  inhibition at 10 µM: 97%
[1]
  pIC50: 6.40

## CN(c1ccc(Cl)cc1)c1ccc(C(=O)c2ccc([S+]([O-])C3CCCCC3)c(C(=O)O)c2)cc1 (centres unmarked) [1:5, 5-{4-[(4-Chlorophenyl)(methyl)amino]benzoyl}-2-(cyclohexylsulfinyl)benzoic acid]
[1]
  pIC50: 6.87

## O=C(c1ccc(Sc2ccc(F)cc2)c(C(=O)O)c1)c1ccc(N(CC2CC2)c2ccc(Cl)cc2)cn1 [2:11, 5-{5-[(4-Chlorophenyl)cyclopropylmethylamino]pyridine-2-carbonyl}-2-(4-fluorophenylsulfanyl)benzoic acid]
[1]
  pIC50: 7.34

## CCCCCC[S+]([O-])c1ccc(C(=O)c2ccc(N(CC3CC3)c3ccc(Cl)cc3)cn2)cc1C(=O)O (centres unmarked) [1:16, 5-{5-[(4-Chlorophenyl)cyclopropylmethylamino]pyridine-2-carbonyl}-2-(1-hexyl-sulfinyl)benzoic acid]
[1]
  pIC50: 7.46

## CN(c1ccc(Cl)cc1)c1ccc(C(=O)c2ccc(Sc3cccc(Cl)c3)c(C(=O)O)c2)cc1 [Example 2:2, 5-{4-[(4-Chlorophenyl)(methyl)amino]benzoyl}-2-(3-chlorophenylsulfanyl)-benzoic acid]
  inhibition at 10 µM: 98%
[1]
  pIC50: 7.14

## CN(c1ccc(Cl)cc1)c1ccc(C(=O)c2ccc([S+]([O-])c3ccc(F)c(F)c3)c(C(=O)O)c2)nc1 (centres unmarked) [Example 1:13, 5-{5-[(4-Chlorophenyl)methylamino]pyridine-2-carbonyl}-2-(3,4-difluorophenyl-sulfinyl)benzoic acid]
  inhibition at 10 µM: 99%
[1]
  pIC50: 7.06

## O=C(c1ccc(Sc2ccccc2Cl)c(C(=O)O)c1)c1ccc(N(CC2CC2)c2ccc(Cl)cc2)cn1 [2:10, 5-{5-[(4-Chlorophenyl)cyclopropylmethylamino]pyridine-2-carbonyl}-2-(2-chlorophenylsulfanyl)benzoic acid]
[1]
  pIC50: 7.66

## O=C(c1ccc(Sc2ccc(C(F)(F)F)cc2)c(C(=O)O)c1)c1ccc(N(CC2CC2)c2ccc(Cl)cc2)cn1 [2:13, 5-{5-[(4-Chlorophenyl)cyclopropylmethylamino]pyridine-2-carbonyl}-2-(4-trifluoromethylphenylsulfanyl)benzoic acid]
[1]
  pIC50: 6.89

## CN(c1ccc(Cl)cc1)c1ccc(C(=O)c2cc(Sc3ccc(F)c(F)c3)cc(C(=O)O)c2)cc1 [4:9, 3-{4-[(4-Chlorophenyl)(methyl)amino]benzoyl}-5-(3,4-difluorophenyl-sulfanyl)benzoic acid]
Table 4, title compounds of Example 4
  pIC50: 7.06

## COc1cccc(Sc2cc(C(=O)O)cc(C(=O)c3ccc(N(C)c4ccc(Cl)cc4)cc3)c2)c1 [2:25, 3-(4-((4-Chlorophenyl)(methyl)amino)benzoyl)-5-(3-methoxyphenylsulfanyl)benzoic acid]
[1]
  pIC50: 6.84

## CN(c1ccc(Cl)cc1)c1ccc(C(=O)c2cc(C(=O)O)cc([S+]([O-])c3ccc(F)c(F)c3)c2)cc1 (centres unmarked) [Example 4:1, 3-{4-[(4-Chlorophenyl)(methyl)amino]benzoyl}-5-(3,4-difluorophenylsulfinyl)-benzoic acid]
Value printed in the text of Example 4:1
  pIC50: 6.67

## O=C(c1ccc(Sc2ccc(F)c(F)c2)c(C(=O)O)c1)c1ccc(N(CC2CC2)c2ccc(Cl)cc2)cn1 [2:16, 5-{5-[(4-Chlorophenyl)cyclopropylmethylamino]pyridine-2-carbonyl}-2-(3,4-difluorophenylsulfanyl)benzoic acid]
[1]
  pIC50: 7.39

## O=C(c1ccc(Sc2ccccc2)c(C(=O)O)c1)c1ccc(N(CC2CC2)c2ccc(Cl)cc2)cn1 [2:14, 5-{5-[(4-Chlorophenyl)cyclopropylmethylamino]pyridine-2-carbonyl}-2-phenylsulfanylbenzoic acid]
[1]
  pIC50: 7.33

## COc1ccc(Sc2ccc(C(=O)c3ccc(N(CC4CC4)c4ccc(Cl)cc4)cn3)cc2C(=O)O)cc1 [2:20, 5-{5-[(4-Chlorophenyl)cyclopropylmethylamino]pyridine-2-carbonyl}-2-(4-methoxyphenylsulfanyl)benzoic acid]
[1]
  pIC50: 7.07
